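In this assay, cells in 96-well plates receive the compound at five concentrations for 48 hours. Endpoints are linearly interpolated between the surrounding concentrations. TGI marks complete inhibition of growth.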
Assays:
Assay in all cases: inhibition of tumour cell growth, NCI panel, 48 h
[1] = system: NCI-H460 lung
[2] = system: HOP-62 NSCLC
[3] = system: NCI-H226 lung
[4] = system: SF-539 CNS
[5] = system: TK-10 renal
[6] = system: NCI-H23 lung
[7] = system: MDA-MB-435
[8] = system: UACC-62 melanoma
[9] = system: SK-MEL-5 melanoma
[10] = system: A498 renal

Row | Compound | TGI [1] | TGI [2] | TGI [3] | TGI [4] | TGI [5] | TGI [6] | TGI [7] | TGI [8] | TGI [9] | TGI [10]
1 | Cn1c2ccccc2n2c(=O)c3cc([N+](=O)[O-])ccc3c(C#N)c12 | > 100 µM | > 100 µM | > 100 µM | > 100 µM | > 100 µM | > 100 µM | > 100 µM | > 100 µM | > 100 µM | –
2 | O=C1NC2OC(CO)C(O)C(O1)C2O (stereo not drawn) | > 100 µM | > 100 µM | > 100 µM | > 100 µM | > 100 µM | > 100 µM | – | > 100 µM | > 100 µM | > 100 µM
3 | Cc1cccc(C)c1NC(=O)C(=O)C1C(=O)NC(=O)NC1=O | > 100 µM | > 100 µM | > 100 µM | > 100 µM | > 100 µM | > 100 µM | – | > 100 µM | > 100 µM | > 100 µM
4 | O=c1[nH]nc(-c2ccccc2)c2[nH]c(-c3ccccc3)cc12 | – | > 100 µM | – | – | – | > 100 µM | > 100 µM | – | – | –
5 | CSC(C1c2ccccc2N(c2ccc(C)cc2)C2=NC(=O)N(C)C(=O)C21Cl)S(=O)(=O)c1ccc(C)cc1 (stereo not drawn) | 64.8 µM | 43.3 µM | 48.7 µM | 34.3 µM | > 100 µM | 46.9 µM | – | 52 µM | 32.3 µM | 92.7 µM
6 | O=C(Cc1ccc([N+](=O)[O-])cc1)OCC#CCOC(=O)Cc1ccc([N+](=O)[O-])cc1 | > 10 µM | – | – | > 10 µM | > 10 µM | > 10 µM | > 10 µM | > 10 µM | > 10 µM | –
7 | COc1c(Br)cc(CC(N)=O)c(O)c1Br | – | > 100 µM | > 100 µM | > 100 µM | > 100 µM | > 100 µM | – | > 100 µM | > 100 µM | > 100 µM
8 | NC(=O)c1cc2ccccc2o/c1=N/O | > 100 µM | > 100 µM | > 100 µM | > 100 µM | > 100 µM | > 100 µM | > 100 µM | > 100 µM | > 100 µM | –
9 | CC(=O)OCC(OC(C)=O)C1C[C@H]2O[C@@H]3[C@H](C[C@H]2O1)O[C@@]1(C[C@@H]3C)C[C@H](C)[C@@H]2O[C@]3(C[C@@H]2O1)C[C@H]1O[C@H]2[C@H](C)[C@H]4OC(=O)CC5CC[C@H]6OC7[C@H]8O[C@]9(CC[C@H]%10CC(O)(CO)[C@H](CC[C@H]%11C[C@@H](C)C(O)(CO)C(C[C@@H]4O[C@H]2C[C@H]1O3)O%11)O%10)CC8O[C@@H]7[C@@H](O9)[C@H]6O5 (stereo partly drawn) | > 1 µM | > 1 µM | 0.142 µM | – | > 1 µM | – | 0.0139 µM | > 1 µM | > 1 µM | > 1 µM
10 | O=C(N/N=C/c1ccco1)c1cc(I)cc(I)c1O | – | – | 39.7 µM | 26 µM | – | > 50 µM | > 50 µM | > 50 µM | 34.4 µM | 32.8 µM
11 | COc1ccc2c(c1)CC1=C(O2)c2ccc(OC)cc2OC1 | – | > 100 µM | > 100 µM | 85.1 µM | 46.3 µM | > 100 µM | 47.5 µM | 39.2 µM | 42.4 µM | > 100 µM
12 | COc1cc(/C=C\C(=O)O)ccc1OCc1ccccc1 | > 100 µM | > 100 µM | – | > 100 µM | > 100 µM | > 100 µM | > 100 µM | > 100 µM | > 100 µM | > 100 µM
13 | Brc1cc2nn(-c3ccccc3)nc2c2nonc12 | > 100 µM | > 100 µM | > 100 µM | > 100 µM | > 100 µM | > 100 µM | > 100 µM | > 100 µM | > 100 µM | –
14 | COc1ccc(Nc2nc3c([nH]2)c(=O)n(C)c(=O)n3C)cc1 | – | > 10 µM | – | – | > 10 µM | > 10 µM | > 10 µM | > 10 µM | > 10 µM | –
15 | CN(C)CCn1c(=O)c2ccc(NCCCN(C)CCCNc3ccc4c(=O)n(CCN(C)C)c(=O)n5c6ccc([N+](=O)[O-])cc6c(=O)c3c45)c3c(=O)c4cc([N+](=O)[O-])ccc4n(c1=O)c23 | 0.12 µM | 0.842 µM | – | 0.851 µM | 1.52 µM | 0.171 µM | 0.097 µM | 0.318 µM | 0.311 µM | 0.398 µM
16 | CC1(C(=O)O)CCCC1C(=O)O (stereo not drawn) | > 100 µM | > 100 µM | > 100 µM | – | > 100 µM | > 100 µM | – | > 100 µM | > 100 µM | > 100 µM
17 | COC(=O)C1CC2(c3ccccc3)C(=O)c3ccccc3N2O1 (stereo not drawn) | > 100 µM | > 100 µM | > 100 µM | > 100 µM | > 100 µM | > 100 µM | – | > 100 µM | > 100 µM | > 100 µM
18 | O=C1C=C(c2ccccc2)O/C1=C/C(=O)c1ccc(Cl)cc1 | 41.5 µM | 85.3 µM | – | 43.4 µM | 35.3 µM | – | 28.5 µM | 28.5 µM | 44.2 µM | 75.4 µM
19 | O=c1c2ccccc2nc(Nc2cccc(Cl)c2)n1/N=C/C=C/c1ccccc1 | > 100 µM | > 100 µM | > 100 µM | > 100 µM | > 100 µM | > 100 µM | > 100 µM | > 100 µM | > 100 µM | –
20 | Nc1ccc(S(=O)(=O)Nc2nc3ccccc3nc2N2CCCCC2)cc1 | > 100 µM | > 100 µM | > 100 µM | > 100 µM | > 100 µM | > 100 µM | > 100 µM | > 100 µM | > 100 µM | –
21 | COC1(OC)CCCCC2c3cccc(OC(C)=O)c3C21OC(C)=O (stereo not drawn) | – | > 100 µM | > 100 µM | > 100 µM | > 100 µM | > 100 µM | – | > 100 µM | > 100 µM | –
22 | O=C1C=CC(=O)c2c(O)c(NCCc3ccc(O)cc3)c(Cl)c(O)c21 | > 10 µM | > 10 µM | > 10 µM | > 10 µM | > 10 µM | > 10 µM | > 10 µM | > 10 µM | > 10 µM | –
23 | O=C(Nc1cccc(O)c1)C(=O)C(C(=O)c1ccccc1F)C1OC(=O)c2ccccc21 (stereo not drawn) | 94.9 µM | > 100 µM | 49.1 µM | 40.2 µM | > 100 µM | 88.2 µM | – | 37.8 µM | > 100 µM | > 100 µM

— PubChem BioAssay (NCI)
